We go through 27 compounds from ChEMBL document CHEMBL1201862, “PubChem BioAssay data set” (2004).

Each structure is given as a SMILES string.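 Method: 48-hour compound exposure of cells in 96-well plates, five concentrations, linear interpolation of endpoints. At the GI50, growth is halved.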 The source made the active and inactive calls. Cut-off read from the data, not from the text of the source: active = GI50 up to about 1.1 µM and inactive = higher.

Test systems include BT-549; DLD-1; HOP-18; KM-20L2; LXFL 529; SNB-78; XF498; DMS-114; RXF 631.
What all share (experiment): inhibition of tumour cell growth, NCI panel, 48 h

On to `Cc1nc(C(N)=S)sc1C(=O)C/C(=N/N)C(=O)Nc1cccc(Cl)c1C`, for which the GI50 with BT-549 was > 100 µM (inactive).

For `O=C1OC[C@H]2[C@@H]1[C@H]1O[C@@H]2C2=C(CCC2)C1=O`, in the experiment with BT-549, the GI50 is > 100 µM (inactive).

With `CC1CC2OC(=O)C3CC(O)CC(=C23)[C@@]12C[C@@H](c1ccoc1)OC2=O` (stereo partly drawn), the GI50 in the experiment with DLD-1, with HOP-18, with KM-20L2, in the experiment with LXFL 529, in the experiment on SNB-78 and in the experiment with XF498 was > 100 µM (inactive) throughout.

Regarding `Oc1ccc2ccccc2c1/N=N/c1cc(Cl)ccc1Cl`, in the experiment with BT-549, the GI50 was > 50 µM (inactive).

Consider `Clc1ccc(C(c2ccc(Cl)cc2)N2CCNCC2)cc1`, for which the GI50 in the experiment with BT-549 was 16.9 µM (inactive).

Consider `Cc1c2cnccc2c(C)c2c1c1ccccc1n2CCCN`, for which the GI50 with BT-549 was 1.46 µM (inactive); in the experiment on DLD-1 it was 0.116 µM (active); in the experiment with DMS-114, 0.31 µM (active); with HOP-18, 0.492 µM (active); with KM-20L2, 0.183 µM (active); with SNB-78, 0.76 µM (active). For the same compound, the GI50 in the experiment with XF498 was 0.713 µM (active).

In the case of `C(=N\OCc1ccccc1)/c1ncccc1C1OCCO1`, the GI50 in the experiment on DLD-1, in the experiment with DMS-114, in the experiment with HOP-18, with KM-20L2, in the experiment with LXFL 529 and with SNB-78 was > 100 µM (inactive) in each case.

For the compound `CCOC(=O)C1(Cc2ccc3c(c2)CCC3)Cc2cc3c(cc2C1)CCC3`, the GI50 with BT-549 is 90.4 µM (inactive).

Consider `CCN(CCO)CC1COc2ccccc2O1` (stereo not drawn), for which the GI50 in the experiment on BT-549 was > 100 µM (inactive).

Turning to `CC1(C(=O)O)CCOc2ccccc21` (stereo not drawn), the GI50 with DLD-1, with DMS-114, in the experiment with HOP-18, with KM-20L2, in the experiment with LXFL 529 and in the experiment with SNB-78 was > 100 µM (inactive) in each case.

Regarding `O=C1CC2OCC=C3CN4CCC5(C(=O)O)C(N1)C2C3CC45` (stereo not drawn), in the experiment with BT-549, the GI50 is > 100 µM (inactive).

As for `CSc1ccc(OCC2OC2O)cc1` (stereo not drawn), the GI50 was 45.7 µM (inactive) in the experiment on DLD-1; 12.9 µM (inactive) in the experiment with DMS-114; > 100 µM (inactive) with HOP-18; 46.2 µM (inactive) with KM-20L2; 29 µM (inactive) with LXFL 529; > 100 µM (inactive) in the experiment with SNB-78. Further, the GI50 in the experiment on XF498 was 30.5 µM (inactive).

Regarding `Oc1c(CN2CCOCC2)ccc(CN2CCOCC2)c1O`, the GI50 in the experiment on BT-549 is 81.3 µM (inactive).

As to `CCOC(=O)Oc1ccc2c(c1)c(=O)c1c(NCCN(CC)CC)ccc3nnn2c31`, the GI50 in the experiment with BT-549 is 10.5 µM (inactive).

Take `C[NH+]1[C@@H](Cc2ccccc2)C(=O)O[B-]1(F)c1ccccc1` (stereo partly drawn): in the experiment with BT-549, the GI50 was > 100 µM (inactive).

Take `CC(C)CCC[C@@H](C)[C@H]1CC[C@H]2[C@@H]3CC=C4CC(OCCCCN(O)CCCSC5OC(CO)C(O)C(O)C5O)CC[C@]4(C)[C@H]3CC[C@]12C` (stereo partly drawn): the GI50 with DLD-1 was 56.4 µM (inactive); in the experiment with DMS-114 it was 25.5 µM (inactive); with KM-20L2, > 100 µM (inactive); in the experiment with LXFL 529 it was 23 µM (inactive); with SNB-78 it was 74.8 µM (inactive); in the experiment on XF498, > 100 µM (inactive).

For `C[N+]1(C)C2Cc3ccccc3C1Cc1ccccc12`, the GI50 in the experiment on BT-549 was > 100 µM (inactive).

With `O=C1/C(=C/c2n[nH]cc2-c2ccc(Cl)cc2)C(=O)N(c2ccccc2)C1c1ccccc1` (stereo not drawn), the GI50 in the experiment with BT-549 was 14.6 µM (inactive).

Regarding `Cc1ccc(/N=N/c2ccc(O)c(CN(C)C)c2)cc1C`, the GI50 in the experiment on BT-549 is 25.6 µM (inactive).

Consider `COc1ccc(Cc2nc3cc(Cl)ccc3o2)cc1`, for which the GI50 in the experiment with BT-549 was 19.4 µM (inactive).

As for `NC(=S)Nc1nc(=S)[nH]c2c1SC1=N/C(=C\c3ccco3)C(=O)N12`, the GI50 in the experiment with BT-549 is > 100 µM (inactive).

For the compound `N/C(=N\Nc1cccc(Cl)c1)c1cccnc1`, the GI50 in the experiment with BT-549 was > 69 µM (inactive).

As to `CO[C@@H]1C[C@H](OC(N)=O)[C@@H]2C=C[C@@H]3/C=C(C)/C=C/[C@@H](C)[C@H](/C(C)=C/[C@@H](C)NC(C)=O)OC(=O)/C=C/C=C(C)\C=C\[C@]3(C)[C@@H]2C1` [SUPERSTOLIDE B], the GI50 with BT-549 was 0.224 µM (active).

Regarding `COc1cc2c(c(OC)c1OC)-c1ccc(SC)c(=O)cc1[C@@H](NC(=O)c1ccc(C#N)cc1)CC2`, the GI50 in the experiment with DLD-1, with DMS-114, with KM-20L2, with LXFL 529, in the experiment on SNB-78 and in the experiment on XF498 was < 0.01 µM (active) throughout.

As for `C=C1CC2(C[C@@H](c3ccccc3)O[C@@H](c3ccccc3)C2)OC1=O` (stereo partly drawn), in the experiment on BT-549, the GI50 was 1.76 µM (inactive).

As for `Cl[Si]1(Cl)Oc2ccccc2O[Si](Cl)(Cl)Oc2ccccc2O1`, the GI50 in the experiment with DLD-1 is 34 µM (inactive); in the experiment on DMS-114, 1.88 µM (inactive); in the experiment with KM-20L2, 27.1 µM (inactive); in the experiment with RXF 631, 7.78 µM (inactive); with XF498, 15.2 µM (inactive).

For the compound `CCCCCCCC(=O)OC[n+]1cccc(-c2c(COC(=O)NC(C)C)c(COC(=O)NC(C)C)c3n2CCC3)c1`, in the experiment with BT-549, the GI50 was > 84.5 µM (inactive).
